Test results published in PubChem BioAssay (NCI).
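How tested: cells in 96-well plates exposed to compound for 48 hours at five concentrations. At the TGI there is no net growth.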

How the values were obtained:
Test in all cases: DTP human tumour cell line panel, 48 h
UO-31 renal = tested on: UO-31 renal
OVCAR-8 ovarian = tested on: OVCAR-8 ovarian
NCI-H460 lung = tested on: NCI-H460 lung
NCI-H522 lung = tested on: NCI-H522 lung
HOP-62 NSCLC = tested on: HOP-62 NSCLC
HS 578T breast = tested on: HS 578T breast
OVCAR-4 ovarian = tested on: OVCAR-4 ovarian
NCI-H226 lung = tested on: NCI-H226 lung
U251 CNS = tested on: U251 CNS
HCT-15 colon = tested on: HCT-15 colon
SF-539 CNS = tested on: SF-539 CNS
M14 melanoma = tested on: M14 melanoma
HCC-2998 colon = tested on: HCC-2998 colon
PC-3 prostate = tested on: PC-3 prostate
MOLT-4 leukemia = tested on: MOLT-4 leukemia
UACC-257 melanoma = tested on: UACC-257 melanoma
MCF7 breast = tested on: MCF7 breast
SNB-75 CNS = tested on: SNB-75 CNS
SK-MEL-28 melanoma = tested on: SK-MEL-28 melanoma
SW-620 colon = tested on: SW-620 colon
MDA-MB-435 = tested on: MDA-MB-435
786-0 renal = tested on: 786-0 renal
A498 renal = tested on: A498 renal
A549 NSCLC = tested on: A549 NSCLC
HL-60(TB) leukemia = tested on: HL-60(TB) leukemia
TK-10 renal = tested on: TK-10 renal
MDA-N = tested on: MDA-N
EKVX NSCLC = tested on: EKVX NSCLC
K-562 leukemia = tested on: K-562 leukemia
KM12 colon = tested on: KM12 colon
RXF 393 renal = tested on: RXF 393 renal
SF-268 CNS = tested on: SF-268 CNS
LOX IMVI melanoma = tested on: LOX IMVI melanoma
NCI-H23 lung = tested on: NCI-H23 lung
HOP-92 NSCLC = tested on: HOP-92 NSCLC
HT29 colon = tested on: HT29 colon
NCI/ADR-RES ovarian = tested on: NCI/ADR-RES ovarian
CAKI-1 renal = tested on: CAKI-1 renal
SR leukemia = tested on: SR leukemia
OVCAR-3 ovarian = tested on: OVCAR-3 ovarian
SK-MEL-2 melanoma = tested on: SK-MEL-2 melanoma
MDA-MB-231 breast = tested on: MDA-MB-231 breast
T-47D breast = tested on: T-47D breast
IGROV1 ovarian = tested on: IGROV1 ovarian
DU-145 prostate = tested on: DU-145 prostate
RPMI-8226 leukemia = tested on: RPMI-8226 leukemia
HCT-116 colon = tested on: HCT-116 colon
OVCAR-5 ovarian = tested on: OVCAR-5 ovarian
SF-295 CNS = tested on: SF-295 CNS
BT-549 breast = tested on: BT-549 breast
ACHN renal = tested on: ACHN renal
SK-MEL-5 melanoma = tested on: SK-MEL-5 melanoma
UACC-62 melanoma = tested on: UACC-62 melanoma
SK-OV-3 ovarian = tested on: SK-OV-3 ovarian
MALME-3M melanoma = tested on: MALME-3M melanoma
SNB-19 CNS = tested on: SNB-19 CNS
SN12C renal = tested on: SN12C renal
COLO 205 colon = tested on: COLO 205 colon

For `Cc1ccc(Nc2nnc3n2S(=O)(=O)c2cc(C)c(Cl)cc2S3)cc1`, the TGI (UO-31 renal) was 81.3 µM, the TGI (OVCAR-8 ovarian) was 33.1 µM and the TGI (NCI-H460 lung) was over 100 µM. The TGI (NCI-H522 lung) was 5.66 µM, the TGI (HOP-62 NSCLC) was 51.8 µM and the TGI (HS 578T breast) was 8.67 µM. It also gave a TGI (OVCAR-4 ovarian) of over 100 µM, a TGI (NCI-H226 lung) of 37.4 µM and a TGI (U251 CNS) of 59.2 µM. The TGI (HCT-15 colon) was 51.3 µM, the TGI (SF-539 CNS) was 14.7 µM and the TGI (M14 melanoma) was 47.4 µM. For the same compound, the TGI (HCC-2998 colon) was 55.8 µM, the TGI (PC-3 prostate) was 27.3 µM and the TGI (MOLT-4 leukemia) was 32.7 µM. For the same compound, the TGI (UACC-257 melanoma) was over 100 µM, the TGI (MCF7 breast) was over 100 µM and the TGI (SNB-75 CNS) was 73.4 µM. For the same compound, the TGI (SK-MEL-28 melanoma) was over 100 µM, the TGI (SW-620 colon) was over 100 µM and the TGI (MDA-MB-435) was 70.4 µM. It also gave a TGI (786-0 renal) of 35.5 µM, a TGI (A498 renal) of 89.2 µM and a TGI (A549 NSCLC) of 61.6 µM. For the same compound, the TGI (HL-60(TB) leukemia) was 9.33 µM, the TGI (TK-10 renal) was over 100 µM and the TGI (MDA-N) was 4.33 µM. The TGI (EKVX NSCLC) was 87.4 µM, the TGI (K-562 leukemia) was 23.8 µM and the TGI (KM12 colon) was over 100 µM. The TGI (RXF 393 renal) was 49.1 µM, the TGI (SF-268 CNS) was 18.4 µM and the TGI (LOX IMVI melanoma) was 65.2 µM. For the same compound, the TGI (NCI-H23 lung) was 48.3 µM, the TGI (HOP-92 NSCLC) was 83.1 µM and the TGI (HT29 colon) was 38.5 µM. It also gave a TGI (NCI/ADR-RES ovarian) of 43.5 µM, a TGI (CAKI-1 renal) of 66.1 µM and a TGI (SR leukemia) of 7.85 µM. For the same compound, the TGI (OVCAR-3 ovarian) was 4.63 µM, the TGI (SK-MEL-2 melanoma) was 67.1 µM and the TGI (MDA-MB-231 breast) was 82.4 µM. It also gave a TGI (T-47D breast) of over 100 µM, a TGI (IGROV1 ovarian) of over 100 µM and a TGI (DU-145 prostate) of over 100 µM. It also gave a TGI (RPMI-8226 leukemia) of 54.9 µM, a TGI (HCT-116 colon) of 67.2 µM and a TGI (OVCAR-5 ovarian) of 74.8 µM. For the same compound, the TGI (SF-295 CNS) was 25.7 µM, the TGI (BT-549 breast) was 31.3 µM and the TGI (ACHN renal) was over 100 µM. For the same compound, the TGI (SK-MEL-5 melanoma) was 29.6 µM.

Compound `O=C1N2CCc3c([nH]c4ccccc34)C23CC2CCCC12S3` (configuration not stated) has a TGI (UO-31 renal) of over 50 µM, a TGI (UACC-62 melanoma) of over 50 µM and a TGI (OVCAR-8 ovarian) of over 50 µM. The TGI (NCI-H522 lung) was over 50 µM, the TGI (HOP-62 NSCLC) was over 50 µM and the TGI (HS 578T breast) was over 50 µM. It also gave a TGI (OVCAR-4 ovarian) of over 50 µM, a TGI (NCI-H226 lung) of over 50 µM and a TGI (U251 CNS) of over 50 µM. It also gave a TGI (SK-OV-3 ovarian) of over 50 µM, a TGI (HCT-15 colon) of over 50 µM and a TGI (SF-539 CNS) of over 50 µM. For the same compound, the TGI (MALME-3M melanoma) was over 50 µM, the TGI (M14 melanoma) was over 50 µM and the TGI (PC-3 prostate) was over 50 µM. It also gave a TGI (MOLT-4 leukemia) of over 50 µM, a TGI (UACC-257 melanoma) of 47.5 µM and a TGI (SNB-19 CNS) of over 50 µM. The TGI (MCF7 breast) was over 50 µM, the TGI (SK-MEL-28 melanoma) was over 50 µM and the TGI (SW-620 colon) was over 50 µM. For the same compound, the TGI (MDA-MB-435) was over 50 µM, the TGI (786-0 renal) was over 50 µM and the TGI (A498 renal) was over 50 µM. The TGI (A549 NSCLC) was over 50 µM, the TGI (HL-60(TB) leukemia) was over 50 µM and the TGI (TK-10 renal) was over 50 µM. It also gave a TGI (MDA-N) of over 50 µM, a TGI (EKVX NSCLC) of over 50 µM and a TGI (K-562 leukemia) of over 50 µM. It also gave a TGI (KM12 colon) of over 50 µM, a TGI (RXF 393 renal) of over 50 µM and a TGI (SF-268 CNS) of over 50 µM. It also gave a TGI (LOX IMVI melanoma) of over 50 µM, a TGI (NCI-H23 lung) of over 50 µM and a TGI (HOP-92 NSCLC) of over 50 µM. For the same compound, the TGI (HT29 colon) was over 50 µM, the TGI (SN12C renal) was over 50 µM and the TGI (NCI/ADR-RES ovarian) was 43.9 µM. For the same compound, the TGI (COLO 205 colon) was over 50 µM, the TGI (CAKI-1 renal) was over 50 µM and the TGI (SR leukemia) was over 50 µM. For the same compound, the TGI (OVCAR-3 ovarian) was over 50 µM, the TGI (SK-MEL-2 melanoma) was over 50 µM and the TGI (MDA-MB-231 breast) was over 50 µM. The TGI (T-47D breast) was over 50 µM, the TGI (IGROV1 ovarian) was over 50 µM and the TGI (DU-145 prostate) was over 50 µM. For the same compound, the TGI (RPMI-8226 leukemia) was over 50 µM, the TGI (HCT-116 colon) was over 50 µM and the TGI (OVCAR-5 ovarian) was over 50 µM. For the same compound, the TGI (SF-295 CNS) was over 50 µM, the TGI (BT-549 breast) was over 50 µM and the TGI (ACHN renal) was over 50 µM. It also gave a TGI (SK-MEL-5 melanoma) of over 50 µM.
